Results from patent US20140024716A1, “Composition Comprising S-Allyl-L-Cysteine as Active Ingredient for Preventing or Treating Gastrointestinal Disorders” (PHARMAKING CO., LTD., priority 2009, published 2014).
“And” between values parts separate entries of the source, which are not always exact repeats. Equal entries are not always repeated. Where two headings read alike, the source gives them in different places.

Assays:
[1] = design: species or system C57BL/6 mice; settings: mouse, in vivo
Protocol: S-allyl-L-Cysteine (SAC) was purchased from TCI Chemical Co. (Tokyo, Japan). Helicobacter pylori was American Type Culture Collection (ATCC) 43504 (cagA+, vacA s1-ml type) and cultured in a Mueller Hinton-Agar broth at 37° C. for 48 hours, under 5% CO2 microaerophilic conditions with a concentration of 1×10^9 CFU/ml.
8-week old male specific pathogen free (SPF) C57BL/6 mice were used. Weights of the mice were measured in the Animal Lab, Department of Pathology, the College of Veterinary Medicine, Kyungbook National University. Then, the mice were classified into 4 groups and bred such that average weights of each group are similar to each other. The mice were acclimated and bred in the Animal Lab, Department of Pathology, the College of Veterinary Medicine, Kyungbook National University at a temperature of 22±3° C., at a relative humidity of 50±10%, with light for 12 hours (light turned on at 08:00 and light turned off at 20:00) by an automatic temperature and humidity control system. Other environments for breeding which might influence the test for the entire test period were not considered for use. […]
Weights of male C57BL/6 mice infected with Helicobacter pylori ere measured three times a week for the entire 10-week test period to observe weight changes of the mice.

[2] = tested on: gastric lesions of rats induced by aspirin; assay: Aspirin-induced gastric lesion animal model; type: in vivo, Sprague-Dawley rats; settings: for Ulcer Area (mm^2), group mean: n = 6
From the text: SAC was purchased from TCI Chemical Co. (Tokyo, Japan). Sterile water for injection (Model No. 73H5F21, Dae Han Pharmaceutical Co. Ltd.) was used as a vehicle, and Stillen® was used as a positive control material. 0.5% CMC-Na and sterile water for injection were used as excipients for Stillen®. Hydrochloric acid was purchased from Samjung Chemical, Co., ethanol was purchased from Baker, Co., aspirin was purchased from Sigma, Co., and indomethacin was purchased from Sigma, Co.
7 to 8-week old male specific pathogen free (SPF) HsdKoat:Sprague-Dawley®™ SD®™rats (weight of 7-week old males was in the range of 208.44 to 227.39 g, and weight of 8-week old maleswas in the range of 223.85 to 245.03 g, purchased from Koatech, Co. Ltd., Gyunggido, Korea) were quarantined and acclimated in the Animal Lab for 7 days. The rats were bred at a temperature of 23 3° C., at a relative humidity of 55 15%, with light for 12 hours (light turned on at 08:00 and light turned off at 20:00) while air was ventilated 10 to 20 times/hr in the Animal Experiment Lab of Gyeonggi Bio-Center. Other environments for breeding which might influence the test for the entire test period were not considered for use. The rats were given free access to a solid laboratory diet (Harlan Co. Ltd., USA. Teklad certified global 18% protein rodent diet, 2918C) that was supplied by Folas International. […] The rats were given free access to tap water that was sterilized using a UV sterilizer and a micro filter with water bottles.
The rats were classified into a vehicle control group G1 to which only a vehicle was administered, a experimental group G2 to which 100 mg/kg of SAC was administered, a experimental group G3 to which 200 mg/kg of SAC was administered, a experimental group G4 to which 400 mg/kg of SAC was administered, and a positive control group G5 to which 100 mg/kg of Stillen® (55.6 mg/kg as an active ingredient) as a positive control material were administered. Each group included 8 rats in a hydrochloric acid-ethanol-induced animal model (Experiment Example 7) and included 6 rats in an aspirin-induced animal model (Experimental Example 8) and in an indomethacin-induced animal model (Experimental Example 9).
The test substance was directly administered to the stomach using an injection tube equipped with a sonde for oral administration in a single dose once per day.
The rats were fasted for more than 24 hours in a normal environment, the test substance was administered, and 200 mg/kg of aspirin in 0.15 mol/L HCl was orally administered after 30 minutes. After three hours from the aspirin administration, the rats were sacrificed under ether anesthesia and their stomachs including parts of the duodenum and esophagus were isolated. The stomachs were was fixed for 10 minutes by injecting 12 ml of 2% formalin. The greater curvature of each stomach was incised and unfolded, photographs of the gastric grandular region were taken, and then the areas of the lesions were measured using an image analyzer.
Gastric lesion inhibiting rate (%)=(average area of the vehicle control group-area of gastric lesion of each animal)/average area of the vehicle control group×100.

Structure (SMILES): C=CCSC[C@H](N)C(=O)O [SAC, S-allyl-L-cysteine]
- weight increase rate less than the PC group by ([1]; 200 mg/kg): 2%
- weight increase rate less than the PC group by ([1]; 400 mg/kg): 0.2%
- Ulcer area of individual animal (Animal number 1-6) ([2]; G2: 100 mg/kg SAC): 91.68 and 44.12 and 40.95 and 63.52 (2×) and 64.67
- Ulcer Area (mm^2), group mean ([2]; G2: 100 mg/kg SAC oral, 30 min before 200 mg/kg aspirin): 68.6±25.94 mm^2 and 68.6 mm^2
- Ulcer area of individual animal (Animal number 1-6) ([2]; G3: 200 mg/kg SAC): 46.29 and 19.37 and 5.41 and 27.07 (2×) and 43.86
- Ulcer Area (mm^2), group mean ([2]; G3: 200 mg/kg SAC): 31.4±16.99 mm^2 and 31.4 mm^2
- Ulcer area of individual animal (Animal number 1-6) ([2]; G4: 400 mg/kg SAC): 63.26 and 9.34 and 70.28 and 40.03 (2×) and 11.58
- Ulcer Area (mm^2), group mean ([2]; G4: 400 mg/kg SAC): 32.5±29.78 mm^2 and 32.5 mm^2
- gastric lesion inhibiting rate (%) up to ([2]; highest rate over SAC doses): about 85%
